Assay results reported in patent US7348401B2, “Peptides that inhibit complement activation” (priority 2003, dated 2008).
Where no end group is shown, it is not given here.

Assays:
[1] = tested on: complement system activated by zymosan; assay: Alternative activation pathway zymosan assay (ELISA for C5a, SC5b-9, C3a); type: biochemical; settings: 2 mg/mL zymosan, human plasma
Method: The peptides were evaluated for involvement in activation of the complement system by the presence of zymosan. Zymosan, or yeast cell wall, has largely been described as an alternative pathway activator. In addition, there are sugars on the surface of the yeast cell wall which are capable of activating the lectin pathway. Therefore, zymosan can be considered as a general complement activator.
Varying concentrations of peptide were incubated with 2 mg/mL zymosan in pooled human plasma. The reactions were incubated at 37° C. for one hour and then stopped by the addition of EDTA. The samples were centrifuged, the plasma removed, and analyzed with commercially available ELISA's for the production of C5a (Pharmingen), SC5b-9 (Quidel), and C3a (Quidel).

[2] = tested on: classical pathway; antibody sensitized sheep erythrocyte cells; assay: Classical pathway hemolytic assay (RBC hemolysis assay); type: cell-based, human; settings: for inhibition of hemolysis: 100 uM peptide
Method: Inhibition of the classical pathway by the peptides was measured using a standard hemolysis assay, which monitors the lysis of sheep erythrocytes as a result of terminal complex formation (see e.g. FIG. 1, FIG. 10). Various concentrations of peptide were incubated with 50 μL pooled human plasma (diluted 1:30 with GVB^++), 5×10^7 antibody sensitized sheep erythrocyte cells, and GVB^++ buffer to a final volume of 200 μL. The reaction was incubated at 37° C. for one hour and centrifuged. The percentage of lysis was determined by measuring the optical density of the supernatant at 414 nm. 100% lysis was determined by the optical density at 414 nm of the supernatant from a control sample consisting of 5×10^7 antibody sensitized sheep erythrocyte cells in water. The percent inhibition was calculated as the (% lysisno peptide−% lysispeptide)/% lysisno peptide×100.

[3] = target: T1, complement component C5 (Homo sapiens, UniProt P01031); assay: Phage clone binding to C5 and free-peptide competition assay; settings: for competition among phage clones and free peptides for binding to C5: free peptide at 50, 10 and 1 μM; for specific binding to complement component C5: phage panning / phage clone binding
T1 construct: purchased Advanced Research Technologies
Method: Peptides were identified by panning an M13 phage library (New England Biolabs), a random 12mer peptide library with a diversity of 10^11 different peptide structures, against complement component C5. The phage library was panned against C5 using three different methods for immobilizing C5. The binding reactions all contained 2×10^11 phage particles in PBS containing 0.5% BSA and 0.3% Tween 20. The binding reactions were carried out at 25° C. for two hours and then unbound phage were removed by washing 5 times with PBS containing 0.5% BSA and 0.3% Tween20. The phage were eluted by acid (0.2 M Glycine pH 2.2, 1 mg/mL BSA) and immediately neutralized with 1 M Tris pH 9.1. Following elution, recovered phage were amplified in ER2738 E. coli (NEB) and subjected to two more rounds of panning as described above. The methods for immobilizing C5 include directly coating C5 (Advanced Research Technologies) to the surface (1 μg/mL), capturing biotinylated C5 (1 μg/mL) on a neutravidin (Pierce) coated surface, and capturing biotinylated C5a (1 μg/mL) on a neutravidin (Pierce) coated surface. C5 and C5a (Quidel) were biotinylated by incubating with 10 fold molar excess of Sulfo-NHS-LC-LC-Biotin for 2 hours at room temperature at pH 7.4 and then removing excess biotin by gel filtration. A negative selection was performed in the final round against neutravidin for the two latter screening methods. DNA from twenty randomly selected clones from each of the three final libraries was isolated and sequenced.
The binding sites of the peptides were further probed via C5-binding competition assays. Increasing concentrations of each phage clone were incubated for 2 hours with 200 ng of biotinylated C5 in PBS containing 0.5% BSA. The phage bound C5 complex was captured on a neutravidin coated microplate for 20 minutes at room temperature and then washed with PBS containing 0.5% BSA. A peroxidase labeled anti-M13 antibody (Pharmacia) was used to detect the amount of phage bound to C5 with OPD substrate. Competition assays with free peptide were carried out in a similar manner except that one concentration of each phage clone was used which was determined as the concentration giving approximately 50% binding in the previous titration. Free peptide was added to the phage clones at concentrations of 50, 10 and 1 μM and incubated with the biotinylated C5 and the assay was carried out as above.

[4] = tested on: alternative pathway; assay: Alternative activation pathway C.A. membrane assay (ELISA for C5a, SC5b-9, C3a); type: biochemical; settings: cellulose acetate hemodialysis membrane, human plasma
Method: Inhibition of the alternative pathway by the peptides was determined by incubating pooled human plasma in the presence and absence of various concentrations of peptide with 20 mg of cellulose acetate hemodialysis membrane at 37° C. for one hour. The reaction was stopped with EDTA and then the samples were analyzed with commercially available ELISA's for the production of C5a (Pharmingen), SC5b-9 (Quidel), and C3a (Quidel).

[5] = tested on: classical pathway; assay: Classical pathway component assay (immune complex, ELISA for C5a, SC5b-9, C3a); type: biochemical, human; settings: classical pathway, immune complex, human plasma
Method: The inhibition of the classical pathway by the peptides was measured by incubating human plasma in the presence and absence of peptides with an immune complex generated on a surface and then monitoring for the production of complement components C5a, SC5b-9, and C3a. To generate the immune complex, a 10 mg/mL solution of BSA in PBS was incubated at 56° C. for 30 minutes and then used to coat the surface of a microplate by diluting to 50 μg/mL at pH 9.6 and incubating for one hour at 37° C. The plate was washed and then incubated with 18 μg/mL mouse anti-BSA IgG2a (Sigma) for one hour at 37° C. Pooled human plasma with and without various concentrations of peptide were incubated for 30 minutes at 37° C. with the generated immune complex and the reaction was stopped with the addition of EDTA. The plasma samples were then analyzed with commercially available ELISA's for the production of C5a (Pharmingen), SC5b-9 (Quidel), and C3a (Quidel).

[6] = tested on: Human mesangial cells; assay: Inhibition of complement mediated cell death, in vitro autoimmune glomerulonephritis model; type: cell-based; settings: 250 μM of peptide, 48 hours
Method: The peptides were evaluated for their ability to inhibit complement mediated cell death in an in vitro autoimmune glomerulonephritis model. Human mesangial cells were cultured to approximately 75% confluency and then treated for one hour at 37° C. with phosphatidyl inositol-phospholipase C to remove GPI-anchored complement regulatory proteins. Following enzyme treatment, the cells were washed and equilibrated in GSBM growth medium supplemented with 2.5% fetal bovine serum for one hour at 37° C. The cells were then incubated in pooled human plasma supplemented with 100 μg/mL of heat aggregated human IVIG (generated by heating at 63° C. for 30 minutes) either in the presence of absence of various concentrations of peptides for 48 hours at 37° C. The source of complement was replenished every 12 hours during the incubation by adding 25% of the original volume of fresh plasma along with heat aggregated IVIG and peptides so that the same final concentrations were maintained. Following the 48 hour incubation, the cells were stained with the commercial Live/Dead Viability kit (Molecular Probes) and the relative fluorescence was measured to determine the extent of cell death. The percent of cell death was calculated versus a control sample in which heat-inactivated plasma, (heated to 56° C. for 30 minutes) as a means of inactivating complement components, was used.

T1 sequence (P01031 19-1676): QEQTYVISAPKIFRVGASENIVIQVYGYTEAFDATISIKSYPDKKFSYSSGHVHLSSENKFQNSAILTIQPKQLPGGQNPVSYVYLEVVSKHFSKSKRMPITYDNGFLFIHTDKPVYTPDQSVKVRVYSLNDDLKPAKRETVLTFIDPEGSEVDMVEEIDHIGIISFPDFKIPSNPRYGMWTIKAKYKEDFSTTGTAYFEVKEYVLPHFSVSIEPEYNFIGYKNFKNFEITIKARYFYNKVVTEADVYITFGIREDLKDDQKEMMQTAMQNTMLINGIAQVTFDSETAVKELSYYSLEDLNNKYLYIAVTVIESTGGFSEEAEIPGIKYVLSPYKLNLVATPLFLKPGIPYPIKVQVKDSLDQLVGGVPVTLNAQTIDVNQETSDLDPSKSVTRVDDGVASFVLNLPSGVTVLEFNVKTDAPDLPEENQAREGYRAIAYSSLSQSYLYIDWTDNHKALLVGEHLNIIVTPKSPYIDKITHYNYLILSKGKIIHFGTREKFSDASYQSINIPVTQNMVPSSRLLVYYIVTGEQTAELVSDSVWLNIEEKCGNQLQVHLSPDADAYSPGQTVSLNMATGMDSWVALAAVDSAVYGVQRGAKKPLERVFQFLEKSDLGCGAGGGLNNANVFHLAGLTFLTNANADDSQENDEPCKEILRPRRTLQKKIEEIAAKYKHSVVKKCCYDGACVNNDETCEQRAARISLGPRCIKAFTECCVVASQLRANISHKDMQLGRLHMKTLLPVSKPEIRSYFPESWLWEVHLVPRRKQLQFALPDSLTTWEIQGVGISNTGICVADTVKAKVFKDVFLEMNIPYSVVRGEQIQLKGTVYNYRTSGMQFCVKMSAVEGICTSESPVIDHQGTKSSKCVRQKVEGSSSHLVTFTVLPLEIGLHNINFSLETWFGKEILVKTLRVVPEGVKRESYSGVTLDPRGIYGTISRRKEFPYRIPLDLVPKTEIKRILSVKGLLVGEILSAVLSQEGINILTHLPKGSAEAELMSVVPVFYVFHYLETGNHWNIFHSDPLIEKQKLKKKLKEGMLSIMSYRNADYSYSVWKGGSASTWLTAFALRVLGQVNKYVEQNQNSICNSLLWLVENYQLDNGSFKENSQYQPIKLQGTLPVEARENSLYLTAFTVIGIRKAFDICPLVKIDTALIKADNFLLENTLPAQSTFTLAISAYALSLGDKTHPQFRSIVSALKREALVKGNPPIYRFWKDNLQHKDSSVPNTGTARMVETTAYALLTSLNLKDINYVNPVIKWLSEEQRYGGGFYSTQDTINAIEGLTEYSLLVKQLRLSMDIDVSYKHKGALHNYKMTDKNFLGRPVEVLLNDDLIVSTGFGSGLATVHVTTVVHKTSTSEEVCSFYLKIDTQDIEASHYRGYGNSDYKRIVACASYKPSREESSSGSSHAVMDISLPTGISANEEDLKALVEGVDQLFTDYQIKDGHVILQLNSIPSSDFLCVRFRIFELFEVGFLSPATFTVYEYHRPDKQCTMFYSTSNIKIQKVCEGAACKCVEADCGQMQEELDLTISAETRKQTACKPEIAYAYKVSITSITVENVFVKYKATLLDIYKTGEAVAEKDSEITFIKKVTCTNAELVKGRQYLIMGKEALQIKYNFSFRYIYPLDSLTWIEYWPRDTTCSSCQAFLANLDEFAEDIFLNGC

Sequence | C3a generation [1] | C5a production [1] | SC5b-9 production [1] | inhibition of hemolysis [2] | competition among phage clones and free peptides for binding to C5 [3] | specific binding to complement component C5 [3] | C3a production [4] | C5a generation [4] | SC5b-9 generation [4] | C3a production [5] | C5a production [5] | SC5b-9 production [5] | inhibition of complement mediated cell death [6] | inhibitory activity in RBC hemolysis assay compared with parent peptide [2]
SFNDLLWRWEWP [Peptide 7] | activated | inhibited | inhibited | significant inhibition of hemolysis | significant competition | specifically bound complement component C5 | activated | inhibited | inhibited | enhanced production | inhibited | inhibited | – | –
TEEVRWEFPL [Peptide 117] | – | – | – | – | – | – | – | – | – | – | – | – | up to 69% | enhanced the levels of inhibitory activity
TQDNRWEFPLRV [Peptide 13] | no observeable effect | inhibited | inhibited | significant inhibition of hemolysis | significant competition | specifically bound complement component C5 | no effect | dose-dependent inhibition | dose-dependent inhibition | neither of these peptides produced an effect | dose-dependent increase in the inhibition | dose-dependent increase in the inhibition | – | almost comparable activity
